Assay results: US8247615B2, “Process of converting esterified xanthophylls from Capsicum to non-esterified xanthophylls in high yields and purities” (Kalamazoo Holdings, Inc., priority 2010, dated 2012)
≈ marks a conversion by molar mass, not a printed value. Entries after “also recorded” stand apart in the source; their conditions may differ.

Legend:
Format in all cases: physicochemical
[1] = Solubility of zeaxanthin in solvents (saturated solution, residue weighed); details: organic solvent or mixture, thermodynamic from solid
From the text: In a procedure identical to that described in Example 6 up until almost the final methanol desolventization step, rather than desolventizing the zeaxanthin methanol slurry, it was transferred along with 1.5 parts water (by volume) to a continuous extractor containing 1 part dichloromethane. The slurry was extracted with dichloromethane for four hours at which time the dichloromethane solution in the receiver was decanted away from the crystalline zeaxanthin that had formed. The crystals thereby obtained were 95.1% pure all-trans-zeaxanthin. The yield obtained was only 12.6%, but this experiment was only intended to produce purified zeaxanthin crystals. […] These crystals were homogenized in a mortar and pestle and added to separate vials containing various solvents until a saturated solution was obtained. In order to measure the solubility of zeaxanthin in different solvents (shown in Table 7 below), a 5.0 ml portion of the saturated supernatant was filtered, desolventized, and the residues weighed.

[2] = Stability of zeaxanthin in strongly basic (pH~14) aqueous methanolic potassium hydroxide at room temperature for 15 days
Experimental: A reaction was carried out using the same reactants at the same proportions under the same conditions as reaction 19 in the table in Example 1. The procedure was identical for the first 24 hrs as described for reaction 19, but after refluxing for 24 hours, the mixture was allowed to settle for 1 hour at which time the upper hexane layer was decanted away. The remaining lower phase was washed twice by partitioning with water (30 mL for each wash). In each case the lower aqueous phase was discarded and after the second water wash, methanol (75 mL) was added to the remaining upper phase. The mixture was then distilled to remove the remaining hexanes and then refluxed for five hours. The mixture was then allowed to cool and was centrifuged and decanted to afford a supernatant and a crude precipitate. […] The purity was 17.4%. In a separate experiment, the mixture was allowed to cool after distilling away hexane (i.e. the five hour reflux described above was not carried out) and placed in a separating funnel for 15 days at which time the supernatant was removed by decanting to afford a crude precipitate. […] The supernatant and both wash solutions were analyzed for zeaxanthin content and >99% of the input zeaxanthin was accounted for, even after sitting in caustic solution for two weeks!

[3] = Stability of zeaxanthin to saponification / reflux in caustic aqueous methanolic potassium hydroxide
Experimental: In a procedure similar to that described in Example 2 after distilling away the hexane, the mixture was refluxed for a total of 40 hours and the content of zeaxanthin isomers was monitored by HPLC as a function of time. After refluxing for 40 hours the mixture was allowed to cool, then centrifuged to afford a supernatant and a crude precipitate. The crude precipitate was washed with methanol (4× by weight of crude precipitate) centrifuged and decanted to afford a wash solution and a refined precipitate. After desolventization, the powder was 59.0% pure zeaxanthin corresponding to a yield of 71%. The supernatant and the wash solution were both analyzed for zeaxanthin content and >99% of input zeaxanthin was accounted for, even after refluxing in caustic solution for 40 hours!

[4] = Stability of zeaxanthin on spray drying of the methanol slurry; details: spray dryer, inlet 120-160° C., outlet 60.5-87.2° C., nitrogen drying gas
Experimental: In an experiment identical to the procedure described in Example 6, the zeaxanthin/methanol slurry was desolventized using a spray dryer. […] Inlet temperatures ranged from 120° C. to 160° C., outlet temp was 60.5° C. to 87.2° C., and rotary atomizer was set at 5.5 bar. Nitrogen was used as the drying gas.

[5] = Stability of cis and trans isomers of zeaxanthin to the analytical sample preparation conditions; details: analytical saponification in refrigerator, between 2 and 119 hours
Experimental: […]
Using the sample preparation conditions above, duplicate samples were prepared from the same oleoresin and each were split into seven separate vials and then stored in the refrigerator. A vial from each of the duplicate samples was removed at various times and analyzed by HPLC. […] We therefore conclude that our sample preparation and analysis conditions are not changing the amounts of the two isomers and that the amounts measured are the amounts in the samples prior to sample preparation and analysis.

## CC1=C(/C=C/C(C)=C/C=C/C(C)=C/C=C/C=C(C)/C=C/C=C(C)/C=C/C2=C(C)CC(O)CC2(C)C)C(C)(C)CC(O)C1 (stereo not shown) [Zeaxanthin, zeaxanthin]
[1]; solvent Acetone
  solubility: 1630 µg/mL (≈ 2870 µM)
[1]; solvent DCM (dichloromethane)
  solubility: 2960 µg/mL (≈ 5200 µM)
[1]; solvent EtOAc (ethyl acetate)
  solubility: 1070 µg/mL (≈ 1880 µM)
[1]; solvent EtOH (ethanol)
  solubility: 40 µg/mL (≈ 70.3 µM)
[1]; solvent Hexane
  solubility: 68 µg/mL (≈ 120 µM)
[1]; solvent IPA (isopropyl alcohol)
  solubility: 81 µg/mL (≈ 142 µM)
[1]; solvent Methanol
  solubility: 82 µg/mL (≈ 144 µM)
[1]; solvent MtBE (methyl tert-butyl ether)
  solubility: 726 µg/mL (≈ 1280 µM)
[1]; solvent THF (tetrahydrofuran)
  solubility: > 20400 µg/mL
[2]; after sitting in caustic solution for two weeks (15 days), precipitate, supernatant and wash solutions
  input zeaxanthin accounted for: > 99%
[2]; strongly basic solution (pH~14), room temperature, 15 days
  degradation / loss of zeaxanthin: no degradation of zeaxanthin was observed; also recorded: nor was any significant loss of zeaxanthin observed; also recorded: no loss in zeaxanthin content
[3]; after refluxing in caustic solution for 40 hours, precipitate, supernatant and wash solution
  input zeaxanthin accounted for: > 99%
[3]; reflux in very basic aqueous methanolic solution
  stability to degradation: stable to degradation
[3]; saponification by the method of the present invention, Capsicum starting material
  loss of zeaxanthin: < 1%
[4]
  degradation of zeaxanthin: No degradation of zeaxanthin was observed
[5]
  change in amounts of cis and trans isomers: no change was observed
